{
  "source": "patent US12697366B2",
  "about": "“Thermogenic compositions and methods” (Ohio State Innovation Foundation, priority 2016, dated 2026)",
  "test_system": "DIO mice",
  "assay": "Study 3 (Example 2): EREG injected into epididymal iAb fat of DIO mice",
  "format": "in vivo, mouse",
  "method": "6-week old C57BL6/J male mice (WT) were fed a high fat diet (HF, 45% kcal from fat, D12451, Research Diet Inc., New Brunswick, NJ) for 30 days. Then mice were randomly assigned for • 1) a control group injected with 0.1 mL sterile phosphate buffered saline (PBS) into both epididymal iAb fat (n=7), and • 2) EREG-treated group injected with 20 ng EREG per epididymal iAb fat depot (n=7). Mice were injected with 0.1 mL sterile PBS, containing 200 ng EREG/mL. Mice were individually housed and pair fed when injection started. Mice were injected every other day for 2 weeks. Metabolic measurements were performed as described in 2.5. WAT were collected for protein, mRNA, and histology. Metabolic parameters in study 2.3 and 2.4 were measured by indirect calorimetry (CLAMS, Columbus Instruments, Columbus, OH) at ambient temperature (22° C.) with 12 h light/dark cycles. Animals were fed the same HF diet and water provided ad libitum. Mice were placed individually and allowed to acclimatize in the chambers for 12 h, and O2 consumption, CO2 production, energy expenditure, and locomotor activity were measured for 24 h. Then temperature was changed to 4° C. for 6 h. […] NanoString's nCounter analysis system performed direct detection of target molecules from a single sample using color-coded molecular barcodes, giving a digital quantification of the number of target molecules. A custom panel containing Ereg, thermogenic genes, and PPARα-target genes was designed and used for simultaneous quantification of 37 genes including housekeeping genes. All data were normalized to 3 housekeeping genes Gapdh, Pgk1, and Tubb quantified in the same samples using nSolver Software. Total mRNA (100 ng in 5 μl) was hybridized overnight with nCounter Reporter (20 μl) probes in hybridization buffer and in an excess of nCounter Capture probes (5 μL) at 65° C. for 16-20 h. The hybridization mixture containing target/probe complexes was allowed to bind to magnetic beads containing complementary sequences on the Capture Probe. After each target found a probe pair, excess probes were washed followed by sequential binding to sequences on the Reporter Probe. Biotinylated capture probe-bound samples were immobilized and recovered on a streptavidin-coated cartridge. The abundance of specific target molecules was then quantified using the nCounter Digital Analyzer. Individual fluorescent barcodes and target molecules present in each sample were recorded with a CCD camera by performing a high-density scan (600 fields of view). Images were processed internally into a digital format and were normalized using the NanoString nSolver software analysis tool. Counts were normalized for all target RNAs in all samples based on the positive control RNA to account for differences in hybridization efficiency and post-hybridization processing, purification, and immobilization of complexes. The average was normalized by background counts (the average of the eight negative control counts) for each sample. Subsequently, a normalization of mRNA content was performed based on Gapdh, Pgk1, and Tubb internal reference housekeeping genes. Plasma FFA and TG were measured in plasma samples from study 3, using kits from Wako Diagnostics (Mountain View, CA). Plasma samples were collected from mice in Study 3 and analyzed using a mouse leptin ELISA Kit (Alpco, Salem, NH) according to manufacturer's instruction. The absorbance (450 nm) was measured using Synergy H1 Hybrid Multi-Mode Microplate Reader. Insulin levels were measured in plasma from mice in Study 4 using an ultra-sensitive mouse insulin ELISA kit (Crystal Chem, Downers Grove, IL) according to manufacturer's instruction.",
  "data": [
    {"substance": "EREG: Epiregulin, member of the epidermal growth factor family; recombinant mouse or human protein", "values": [
      {"measurement": "metabolic rate at ambient temperature and after cold exposure", "setting": "CLAMS", "result": "increase"},
      {"measurement": "body temperature in the abdominal area", "setting": "EREG 20 ng per depot every other day, 2 weeks, infrared camera", "result": "profound effects"},
      {"measurement": "weight gain", "setting": "HF diet", "result": "prevented"},
      {"measurement": "expression of PPARα target genes Mcat and Cpt2 in iAb fat", "setting": "NanoString", "result": "increased"},
      {"measurement": "expression of pro-inflammatory genes Tnfa and Mcp1 in iAb fat", "setting": "NanoString", "result": "suppressed"},
      {"measurement": "expression of thermogenic genes (Dio2, Pgc1a, Cidea, Rip140) and CoxIV in iAb fat", "setting": "NanoString", "result": "significantly increased"},
      {"measurement": "light and dark period activity", "setting": "before and after cold exposure", "result": "did not influence"},
      {"measurement": "Lep expression in iAb fat", "setting": "between groups", "result": "similar"},
      {"measurement": "levels of BAT marker Prdm16 in iAb fat", "setting": "between groups", "result": "similar"},
      {"measurement": "food consumption", "setting": "both groups", "result": "similar"},
      {"measurement": "decrease of circulating triglyceride levels", "setting": "compared to control group", "result": 48, "unit": "%"},
      {"measurement": "increase in Ucp1 and Pparg expression in iAb fat", "setting": "mouse, in vivo", "result": "did not reach statistical significance"},
      {"measurement": "less iAb fat than non-treated mice", "setting": "mouse, in vivo", "result": 32, "unit": "%"},
      {"measurement": "liver, BAT and subcutaneous WAT weight", "setting": "normalized to body weight", "result": "did not influence"},
      {"measurement": "levels of secreted LEP, higher than in non-treated mice", "setting": "plasma, ELISA", "result": 215, "unit": "%"},
      {"measurement": "RER", "setting": "treated vs non-treated", "result": "similar"},
      {"measurement": "increase in non-esterified fatty acid in the circulation", "setting": "vs control group", "result": 580, "unit": "%"},
      {"measurement": "time to maximal metabolic rate plateau during cold exposure", "setting": "vs control group", "result": "significantly shorter"}
    ]}
  ]
}
